Test results reported in the NIST ThermoML archive (doi:10.1021/acs.jced.7b00106).
Numbers after ± are expanded uncertainties.

Settings: Hot wire method

FC(F)(F)/C=C/Cl [(E)-1-chloro-3,3,3-trifluoroprop-1-ene]
Settings	thermal conductivity [W/m/K]
342.12 K, 65469 kPa, Liquid	0.09982 ± 0.0042
342.13 K, 113 kPa, Gas	0.01416 ± 0.0005
342.15 K, 367 kPa, Gas	0.01454 ± 0.00052
342.2 K, 116 kPa, Gas	0.01425 ± 0.00051
342.2 K, 377 kPa, Gas	0.01421 ± 0.0005
342.21 K, 43755 kPa, Liquid	0.09113 ± 0.022
342.24 K, 251 kPa, Gas	0.01415 ± 0.0005
342.24 K, 34289 kPa, Liquid	0.08779 ± 0.0029
342.26 K, 113 kPa, Gas	0.01361 ± 0.00048
342.29 K, 7805 kPa, Liquid	0.07547 ± 0.0024
342.3 K, 262 kPa, Gas	0.01427 ± 0.0005
342.32 K, 4001 kPa, Liquid	0.07309 ± 0.0023
342.32 K, 26065 kPa, Liquid	0.08477 ± 0.0048
342.33 K, 176 kPa, Gas	0.01391 ± 0.00049
342.34 K, 464 kPa, Gas	0.0141 ± 0.00052
342.34 K, 19039 kPa, Liquid	0.08156 ± 0.0069
342.35 K, 118 kPa, Gas	0.01366 ± 0.00048
342.37 K, 497 kPa, Liquid	0.07069 ± 0.0027
342.4 K, 364 kPa, Gas	0.01446 ± 0.00051
342.43 K, 179 kPa, Gas	0.01433 ± 0.00051
342.43 K, 7788 kPa, Liquid	0.07522 ± 0.0025
342.45 K, 465 kPa, Gas	0.01403 ± 0.0005
342.47 K, 113 kPa, Gas	0.01424 ± 0.0005
342.47 K, 12801 kPa, Liquid	0.07827 ± 0.0074
342.48 K, 4008 kPa, Liquid	0.07289 ± 0.0031
342.49 K, 19031 kPa, Liquid	0.08119 ± 0.0067
342.51 K, 249 kPa, Gas	0.01404 ± 0.0005
342.52 K, 491 kPa, Liquid	0.07043 ± 0.0027
342.54 K, 114 kPa, Gas	0.0136 ± 0.00048
342.55 K, 117 kPa, Gas	0.01427 ± 0.0005
342.55 K, 375 kPa, Gas	0.01415 ± 0.0005
342.57 K, 65460 kPa, Liquid	0.1005 ± 0.0031
342.59 K, 175 kPa, Gas	0.01391 ± 0.00049
342.6 K, 53948 kPa, Liquid	0.09634 ± 0.0033
342.61 K, 12792 kPa, Liquid	0.07793 ± 0.0073
342.64 K, 119 kPa, Gas	0.01361 ± 0.00048
342.66 K, 260 kPa, Gas	0.01427 ± 0.0005
342.67 K, 362 kPa, Gas	0.01441 ± 0.00051
342.68 K, 43762 kPa, Liquid	0.09267 ± 0.0056
342.7 K, 464 kPa, Gas	0.01406 ± 0.00052
342.72 K, 65463 kPa, Liquid	0.09997 ± 0.003
342.73 K, 34274 kPa, Liquid	0.08854 ± 0.0037
342.75 K, 53929 kPa, Liquid	0.09616 ± 0.0034
342.8 K, 178 kPa, Gas	0.01445 ± 0.00051
342.8 K, 247 kPa, Gas	0.01402 ± 0.00049
342.8 K, 465 kPa, Gas	0.01412 ± 0.00051
342.8 K, 7784 kPa, Liquid	0.07528 ± 0.0026
342.84 K, 43753 kPa, Liquid	0.09232 ± 0.0066
342.85 K, 113 kPa, Gas	0.01425 ± 0.0005
342.85 K, 114 kPa, Gas	0.01353 ± 0.00048
342.86 K, 4005 kPa, Liquid	0.07287 ± 0.0026
342.89 K, 173 kPa, Gas	0.01384 ± 0.00049
342.9 K, 34279 kPa, Liquid	0.08837 ± 0.0028
342.91 K, 372 kPa, Gas	0.01419 ± 0.0005
342.92 K, 488 kPa, Liquid	0.07046 ± 0.011
342.93 K, 359 kPa, Gas	0.01446 ± 0.00053
342.94 K, 116 kPa, Gas	0.01437 ± 0.00051
342.95 K, 121 kPa, Gas	0.01352 ± 0.00048
343.03 K, 258 kPa, Gas	0.01427 ± 0.0005
343.07 K, 464 kPa, Gas	0.01408 ± 0.0005
343.08 K, 246 kPa, Gas	0.01404 ± 0.0005
343.12 K, 496 kPa, Liquid	0.06933 ± 0.013
343.14 K, 26056 kPa, Liquid	0.08389 ± 0.0026
343.17 K, 65460 kPa, Liquid	0.09977 ± 0.0077
343.19 K, 19024 kPa, Liquid	0.08036 ± 0.0025
343.2 K, 178 kPa, Gas	0.01442 ± 0.00051
343.22 K, 357 kPa, Gas	0.01443 ± 0.00051
343.23 K, 53929 kPa, Liquid	0.09614 ± 0.0085
343.27 K, 113 kPa, Gas	0.01431 ± 0.0005
343.3 K, 370 kPa, Gas	0.01421 ± 0.0005
343.34 K, 43755 kPa, Liquid	0.09204 ± 0.008
343.35 K, 117 kPa, Gas	0.01424 ± 0.0005
343.35 K, 12789 kPa, Liquid	0.07705 ± 0.0025
